# Test results published in publication PMC11611271, “Rapid prediction of key residues for foldability by machine learning model enables the design of highly functional libraries with hyperstable constrained peptide scaffolds” (PLOS Computational Biology, 2024).
# Where a SMILES comes first, the peptide text is derived from it. Bridges are numbered along the chain shown (N, C = ends).
# Tests used:
# Type in all cases: binding
# RSP02 = assay: phage spot ELISA on RSP02; details: for S/N: phage spot ELISA signal/noise; for S/N / ELISA: S3 Table sheet RSP02; for ELISA: phage spot ELISA signal
# Source text: (§1) To determine the performance of the libraries for ligand discovery we chose a panel of eight protein targets, which have no structural homology and a wide mass range (Fig 7C). We screened these eight targets with solution panning strategy and two additional plate panning for CD8α/β and CD28, thus ten panning campaigns in total. We consider clones showing spot phage ELISA signal > 0.3 and signal/noise ratio > 2 as positive hits. At least one binding hit was discovered for nine out of the ten panning campaigns, surpassing the success rate of the best DCP scaffolds reported previously. We also obtained the NGS data for these screening and the ranking of clones for their enrichment along the rounds of screening was analyzed and considered the top-ranking clones as potential hits. Based on their sequence diversity we selected 16 potential hits spanning five protein targets for peptide synthesis in their linear form. Seven of these are hits with positive phage ELISA signal and nine were selected based on NGS ranking without spot ELISA available. Subsequently, we conducted in vitro folding experiments on these peptides in various buffers. We observed a strong propensity for spontaneous folding regardless of the buffer condition. All HCP hits tested successfully folded into three-disulfide-containing product within two days in a universal buffer system (PBS, pH 7.4, 50% DMSO) without the need for a redox pair, as shown in Fig 8A. The binding of these folded peptides to their respective target proteins was confirmed using SPR (Table 4 and S1 Data) and binding kinetics are exemplified by the high-affinity peptide 5ji4-CRD7-2 (see Fig 8B). Among seven selected ELISA-positive hits, all of them were successfully synthesized and in vitro folded with three disulfide bonds and five were proven to be validated binders by SPR (Table 4). Nine peptides selected from the NGS ranking were synthesized and folded with the expected number of disulfide bonds and five of them bound to their target with affinities in the μM range as determined by SPR (Table 4). In general, binding affinities for these SPR-validated initial hits are weak, with Kd values in the micromolar range and fast on- and off-rates. There are two exceptions with binding affinities in the nanomolar range.
# (§2) The 5ji4 libraries were constructed following the Kunkel mutagenesis method and the solution panning protocol was followed as previously described. After four to five rounds of binding selection, while eluted pool was subjected to NGS analysis, individual phage clones were also picked and analyzed with phage spot ELISA. Positive clones were subjected to SANGER sequencing.
# HtrA1 = assay: phage spot ELISA on HtrA1; details: for ELISA s/n: Spot ELISA signal/noise; for ELISA s/n / ELISA signal: Fig 9A; for ELISA signal: Spot ELISA
# Source text: To determine the performance of the libraries for ligand discovery we chose a panel of eight protein targets, which have no structural homology and a wide mass range (Fig 7C). We screened these eight targets with solution panning strategy and two additional plate panning for CD8α/β and CD28, thus ten panning campaigns in total. We consider clones showing spot phage ELISA signal > 0.3 and signal/noise ratio > 2 as positive hits. […] We also obtained the NGS data for these screening and the ranking of clones for their enrichment along the rounds of screening was analyzed and considered the top-ranking clones as potential hits. Based on their sequence diversity we selected 16 potential hits spanning five protein targets for peptide synthesis in their linear form. Seven of these are hits with positive phage ELISA signal and nine were selected based on NGS ranking without spot ELISA available. Subsequently, we conducted in vitro folding experiments on these peptides in various buffers.
# as §2
# Among these five hits, A7, which is the SANGER hit, was picked for affinity maturation. Following the same strategy, one soft- and one hard-randomization library was designed targeting the 5JI4 variable regions 1 and 2, respectively. Two libraries were each panned as previously described. Both phage spot ELISA coupled with SANGER sequencing and NGS analysis were applied after affinity maturation.
# CD8α = assay: phage spot ELISA on CD8α; details: S3 Table sheet CD8α; for S/N: phage spot ELISA signal/noise; for ELISA: phage spot ELISA signal
# Source text: as §1, §2
compound,measurement,setting,value
"CSCC[C@@H]1NC(=O)[C@H](Cc2c[nH]c3ccccc23)NC(=O)[C@@H]2CSSC[C@H](NC(=O)[C@H](Cc3ccccc3)NC(=O)[C@H](Cc3c[nH]cn3)NC(=O)[C@H](CCC(=O)O)NC(=O)[C@H](CC(N)=O)NC(=O)[C@H](Cc3ccc(O)cc3)NC1=O)C(=O)N[C@@H](CCCNC(=N)N)C(=O)N[C@@H](C(C)C)C(=O)N[C@@H](Cc1c[nH]cn1)C(=O)N[C@H](C(=O)NCC(N)=O)CSSC[C@H](NC(=O)[C@@H]1CCCN1C(C)=O)C(=O)N[C@@H](CCC(=O)O)C(=O)N[C@H]1CSSC[C@H](NC(=O)[C@H](CCC(=O)O)NC(=O)[C@H](CCC(=O)O)NC(=O)[C@H](CO)NC(=O)[C@H](CO)NC(=O)[C@H](CO)NC(=O)[C@H](C(C)C)NC(=O)[C@H]([C@@H](C)O)NC(=O)[C@H](Cc3ccc(O)cc3)NC(=O)[C@H]([C@@H](C)O)NC(=O)[C@H](CCC(=O)O)NC(=O)CNC(=O)[C@H](CC(N)=O)NC(=O)[C@H](C(C)C)NC(=O)[C@H](CC(=O)O)NC1=O)C(=O)N[C@@H](CCC(=O)O)C(=O)N1CCC[C@H]1C(=O)N[C@@H](CC(C)C)C(=O)N2 [5ji4-RSP-1] (Ac-PCECDVNGETYTVSSSEECEPLCWMYNEHFCRVHCG-NH2; disulfide 2-35, 4-19, 23-31; N-terminus and C-terminus assumed)",ELISA signal,"RSP02; phage spot ELISA of the clone, positive hit: signal > 0.3 and signal/noise > 2",0.58
same,ELISA s/n,RSP02; phage spot ELISA signal/noise ratio,5.22
"CC[C@H](C)[C@@H]1NC(=O)[C@H](CO)NC(=O)[C@@H]2CSSC[C@H](NC(=O)[C@H](CCC(=O)O)NC(=O)[C@H](C)NC(=O)[C@H](CO)NC(=O)[C@H](CO)NC(=O)[C@H]([C@@H](C)O)NC(=O)[C@H](CC(C)C)NC(=O)[C@H](Cc3ccccc3)NC(=O)[C@H](Cc3c[nH]cn3)NC(=O)[C@H](Cc3c[nH]c4ccccc34)NC(=O)CNC(=O)[C@H](CCCNC(=N)N)NC(=O)[C@H](CC(C)C)NC1=O)C(=O)N[C@@H](CCC(=O)O)C(=O)N[C@@H](CCCNC(=N)N)C(=O)N[C@@H](CC(C)C)C(=O)N[C@H]1CSSC[C@H](NC(=O)[C@H]([C@@H](C)O)NC(=O)[C@H](CCCNC(=N)N)NC(=O)[C@H](CC(C)C)NC(=O)CNC(=O)[C@H](CC(C)C)NC(=O)[C@H](CCCNC(=N)N)NC(=O)[C@H](CC(=O)O)NC1=O)C(=O)N[C@@H](CCCNC(=N)N)C(=O)N[C@@H]([C@@H](C)CC)C(=O)N[C@@H](Cc1c[nH]cn1)C(=O)N[C@H](C(=O)NCC(=O)O)CSSC[C@H](NC(=O)[C@@H]1CCCN1)C(=O)N[C@@H](CCC(=O)O)C(=O)N2 [5ji4_A7.D7B2] (H-PCECSILRGWHFLTSSAECERLCDRLGLRTCRIHCG-OH; disulfide 2-35, 4-19, 23-31)",ELISA s/n,HtrA1,5.3
same,ELISA signal,HtrA1,3.45
"CC[C@H](C)[C@@H]1NC(=O)[C@H]([C@@H](C)O)NC(=O)[C@@H]2CSSC[C@H](NC(=O)[C@H](CCC(=O)O)NC(=O)[C@H](C)NC(=O)[C@H](CO)NC(=O)[C@H](CO)NC(=O)[C@H]([C@@H](C)O)NC(=O)[C@H](CC(C)C)NC(=O)[C@H](Cc3ccccc3)NC(=O)[C@H](Cc3ccc(O)cc3)NC(=O)[C@H](Cc3c[nH]c4ccccc34)NC(=O)CNC(=O)[C@@H]3CCCN3C(=O)[C@H](CC(C)C)NC1=O)C(=O)N[C@@H](CCC(=O)O)C(=O)N[C@@H](CCCNC(=N)N)C(=O)N[C@@H](CC(C)C)C(=O)N[C@H]1CSSC[C@H](NC(=O)[C@H]([C@@H](C)O)NC(=O)[C@H](CCCNC(=N)N)NC(=O)[C@H](CC(C)C)NC(=O)CNC(=O)[C@H](CC(C)C)NC(=O)[C@H](CCCNC(=N)N)NC(=O)[C@H](CC(=O)O)NC1=O)C(=O)N[C@@H](CCCNC(=N)N)C(=O)N[C@@H](C(C)C)C(=O)N[C@@H](Cc1c[nH]cn1)C(=O)N[C@H](C(=O)NCC(=O)O)CSSC[C@H](NC(=O)[C@@H]1CCCN1)C(=O)N[C@@H](CCC(=O)O)C(=O)N2 [5ji4_A7.H5B2] (H-PCECTILPGWYFLTSSAECERLCDRLGLRTCRVHCG-OH; disulfide 2-35, 4-19, 23-31)",ELISA s/n,HtrA1,7.6
same,ELISA signal,HtrA1,3.59
"CC[C@H](C)[C@@H]1NC(=O)[C@H](CCCNC(=N)N)NC(=O)[C@@H]2CSSC[C@H](NC(=O)[C@H](CC(C)C)NC(=O)[C@H](CCCNC(=N)N)NC(=O)[C@H](C)NC(=O)[C@@H]3CSSC[C@H](NC(=O)[C@H](CCC(=O)O)NC(=O)[C@@H](NC(=O)[C@@H]4CCCN4)CSSC[C@@H](C(=O)NCC(=O)O)NC(=O)[C@H](Cc4c[nH]cn4)NC1=O)C(=O)N[C@@H](CO)C(=O)N[C@@H]([C@@H](C)CC)C(=O)N[C@@H](CC(C)C)C(=O)N1CCC[C@H]1C(=O)NCC(=O)N[C@@H](Cc1c[nH]c4ccccc14)C(=O)N[C@@H](Cc1c[nH]cn1)C(=O)N[C@@H](Cc1ccccc1)C(=O)N[C@@H](CC(C)C)C(=O)N[C@@H]([C@@H](C)O)C(=O)N[C@@H](CO)C(=O)N[C@@H](CO)C(=O)N[C@@H](C)C(=O)N[C@@H](CCC(=O)O)C(=O)N3)C(=O)N[C@@H](CC(=O)O)C(=O)N[C@@H](CCCNC(=N)N)C(=O)N[C@@H](CC(C)C)C(=O)NCC(=O)N[C@@H](CC(C)C)C(=O)N[C@@H](CCCNC(=N)N)C(=O)N[C@@H]([C@@H](C)O)C(=O)N2 [5ji4_A7.c1] (H-PCECSILPGWHFLTSSAECARLCDRLGLRTCRIHCG-OH; disulfide 2-35, 4-19, 23-31)",ELISA s/n,HtrA1,7.5
same,ELISA signal,HtrA1,3.55
"PAMLLQRNRPYGLLPEECERLCRKLGVTTACHCG [CD8α clone 1, phage clone, 5JI4 library, CD8α panning]",S/N,CD8α,39.9
same,ELISA,CD8α,4.75
"PCACDVNGETYTVSSSEECERLCTWWYFVVCRVHCG [CD8α clone 5, phage clone, 5JI4 library, CD8α panning]",S/N,CD8α,3.0
same,ELISA,CD8α,0.282
"PCDCDVNGETYTVSSSEECEPLCLNWLSSLCRVHCG [CD8α clone 3, phage clone, 5JI4 library, CD8α panning]",S/N,CD8α,37.9
same,ELISA,CD8α,3.371
"PCECDLNGETYTVSSSEECERLCSWYIQYVCRVHCG [CD8α clone 6, phage clone, 5JI4 library, CD8α panning]",S/N,CD8α,2.2
same,ELISA,CD8α,0.194
"PCECDVNGETYTVSSSEECEPLCWMYNEHFCRVHCG [RSP02 clone 6, phage clone, 5JI4 library, RSP02 panning]",S/N,RSP02,8.917
same,ELISA,RSP02,0.856
"PCECDVNGETYTVSSSEECEQDSDCLAGWVCRVHCG [CD8α clone 7, phage clone, 5JI4 library, CD8α panning]",S/N,CD8α,34.2
same,ELISA,CD8α,3.252
"PCECDVNGETYTVSSSEECERCQDWLFYLCRVHCG [CD8α clone 4, phage clone, 5JI4 library, CD8α panning]",S/N,CD8α,35.6
same,ELISA,CD8α,3.525
"PCECDVNGETYTVSSSEECGRLCQYWFIMLCRVHCG [CD8α clone 2, phage clone, 5JI4 library, CD8α panning]",S/N,CD8α,38.5
same,ELISA,CD8α,3.391
"PCECEQPYRDDPDKSSEECERLCRKLGVTNCRVHCG [RSP02 clone 4, phage clone, 5JI4 library, RSP02 panning]",S/N,RSP02,1.788
same,ELISA,RSP02,0.177
"PCECIVRWTTKQLESSEECERLCRKLGVTNCRVHCG [RSP02 clone 2, phage clone, 5JI4 library, RSP02 panning]",S/N,RSP02,1.515
same,ELISA,RSP02,0.2
"PCECQPMSNWFDMISSEECERLCRKLGVTNCRVHCG [RSP02 clone 3, phage clone, 5JI4 library, RSP02 panning]",S/N,RSP02,0.8496
same,ELISA,RSP02,0.192
"PCECTILRGWHFLTSSAECERLCRKLGVTNCRVHCG [HtrA1 clone 1, phage clone, 5JI4 library, HtrA1 panning; sole HtrA1 hit, probably 5ji4-A7]",S/N,"HtrA1; phage spot ELISA signal/noise, S3 Table sheet HtrA1",8.86
same,ELISA,"HtrA1; phage spot ELISA signal, S3 Table sheet HtrA1",1.0205
